Measurements from a melting point compilation (Tetko et al.; mined from patent text by program, amines drawn as free bases though some values may be those of a salt).

SMILES	melting point [°C]
ClC1c2ccccc2-c2ccccc21	87 to 89
O=C(O)c1cc(COC2CCCCO2)ccc1COC1CCCCO1 (configuration not stated)	107 to 108
CC1(C)OC[C@@H](CNc2c([N+](=O)[O-])cnc3cc(Br)ccc23)O1	136 to 137
CCCn1c(=O)c2[nH]c(C(CC)Cc3ccccc3)nc2n(CCC)c1=O (configuration not stated)	180
COC(=O)c1cc(Cl)c(Cl)cc1C#N	120 to 123
CC(C)(C)OC(=O)C[C@@H](NS(=O)(=O)c1ccc2c(Cl)cnc(Cl)c2c1)C(=O)OC(C)(C)C	106 to 110
O=C(O)CCCCN1CCC(Cc2ccccc2)CC1	148 to 151
CC(N)=NC(=Nc1ccccc1)N1CCOCC1	146 to 148
C=CCNc1nc(N2CCCCC2)c2cc([N+](=O)[O-])ccc2n1	123 to 124
CNC(=O)N(O)Cc1ccoc1	129 to 131
Cc1nn(-c2c(Cl)cc(C(F)(F)F)cc2Cl)c(C)c1C=O	82 to 83
Cc1ccc(F)cc1C1CC(=O)c2c(C)cnnc2C1 (configuration not stated)	127 to 128
CCCc1nc(N)c(C(=O)OC)[nH]1	133 to 136
CCCCN(Cc1ccc(-c2ccccc2-c2nnnn2C(c2ccccc2)(c2ccccc2)c2ccccc2)cc1)c1cc(C)nc(C)n1	125 to 127
C=C(C)C(=O)NCCCC(=O)Nc1cc(Cl)c(C)c(Cl)c1O	119 to 121
CC(C)(C)c1cc(N2CCCCC2=O)cc(C(C)(C)C)c1O	212 to 214
Cc1cc(C(=O)O)c(C)c2c1SCCC2(C)C	166 to 167
CCCNP(=O)(OC)N1CC(NC(=O)OCc2ccccc2)C1=O (configuration not stated)	121 to 123
CC(=O)N(C(C)=O)c1c(C#N)cnn1-c1c(F)cc(F)c(F)c1F	132 to 134
COc1ccc2[nH]cc(C3CCN(C(=O)NCC4CCC(c5ccccc5)(N(C)C)CC4)CC3)c2c1 (configuration not stated)	98 to 100
Brc1cnc(SCc2ccccc2)nc1SCc1ccccc1	66 to 67
OC1(c2ccc(Cl)nc2)CCCC1	92 to 93
Cc1c(Nc2c(I)cncc2C#N)ccc2[nH]ccc12	192 to 194

SMILES	melting point [°C]
CCOC(=O)c1cc2nc(C)n(Cc3ccccc3)c2[nH]1	193
CCOCc1nc2c(N)nc3ccccc3c2n1N(C)C	213 to 215
O=C(O)C1CCOc2c(Cl)cc(-c3ccccc3)cc21 (configuration not stated)	187 to 188
CCN(CCc1ccc(NS(C)(=O)=O)cc1)CCc1ccc(NS(C)(=O)=O)cc1	< 60
CCOC(=O)c1ccc(NC(=O)C(C)C)c([N+](=O)[O-])c1	74 to 76
Cc1cc(-c2nc3cccnn3c2-c2ccnc(NC(=O)NC(C)(C)C)c2)ccc1F	234 to 235
O=c1[nH]c2cc(Cl)ccc2c(=O)n1S(=O)(=O)c1ccccc1Cl	275 to 276
O=C1CNc2ncc(I)cc2N1Cc1ccccc1OC(F)(F)F	235
O=[N+]([O-])c1ccc(CP2(=O)OCCCCO2)cc1	136 to 137
CCOC(=O)CNC(=O)C1(N(C(=O)c2ccc(N)cc2)N2CCCCC2)CCCCC1	92 to 96
CC(=O)Nc1ccc(C(C)(C)C)cc1[N+](=O)[O-]	109 to 110
CCN(CC)C(=O)O[C@@H]1[C@@H](c2ccccc2)Nc2c(ccn3c(C)c(C)nc23)[C@H]1OC	97 to 98
CN1C(=O)[C@H](NC(=O)/C=C/c2c(Cl)cccc2Cl)N=C(c2ccccc2)c2ccccc21	121 to 124
CCc1c(Sc2cc(C)cc(C)c2)n(CC2=CCCC2CO)c(=O)[nH]c1=O (configuration not stated)	59 to 60
O=[N+]([O-])c1ccc(CO)c(CCO)c1	79 to 81
CNc1nc(Br)cn2cc(C(N)=O)nc12	312
CCCc1ccc2nc(Cl)c(S(=O)(=O)Cl)n2n1	94.2 to 95.5
CC=CCn1c(C)c(C)c2cnnc(OCc3cc(F)cc(F)c3)c21	78 to 84
O/N=C(\CCN1CCN(c2ccccn2)CC1)c1ccc(Cl)cc1	188 to 190
COC(=O)C(O)(c1ccc(OC)cc1)c1ccc(OC)cc1	110
CCOc1nn(-c2ccc(C(F)(F)F)cn2)cc1CCCOc1nn(C)cc1CC(=O)O	115 to 116
O=C1OC(Cc2ccccc2)CN1c1cccc(F)c1 (configuration not stated)	96 to 97.5

The next lines start with the values.

melting point [°C]	SMILES
114 to 116	COc1cc(C(C)C)c2c(c1)S(=O)(=O)N(COc1cc(C#N)nn1-c1ccccc1)C2=O
236 to 238	O=c1[nH]nc(-c2cc(Cl)ccc2O)n1-c1ccc(C(F)(F)F)cc1
192 to 193	CN1CCC(c2ccc(-c3ccccc3)cc2)(C(C)(C)O)CC1
110 to 112	CNc1nc(-c2cccc(NC(=O)c3cccc(OCc4ccccc4)c3)c2)c2cc(OC)c(OC)cc2n1
147 to 149	Nc1cccc(Oc2ccc(C(=O)c3cccc(C(=O)c4ccc(Oc5cccc(N)c5)cc4)c3)cc2)c1
118 to 123	CCCCOC(=O)c1[nH]c(=O)c2cc(OC(C)C)ccc2c1O
51 to 53	O=C(CCCOc1ccc(OCc2ccccc2)cc1)C(F)(F)F
86 to 88	CO[C@@H]1COCC[C@]1(OC)c1cccc(OCc2ccc3ccccc3c2)c1 (racemic)
190 to 193	O=C1c2ccccc2C2(c3ccccc3)N1CCS2(=O)=O (configuration not stated)
264 to 265	Cn1c(COc2ccc(CC3SC(=O)NC3=O)cc2)nc2cnccc21 (configuration not stated)
95 to 97	O=C(c1cccnc1)N1CCC(c2ccccc2C(F)(F)F)=N1
56 to 57	CCOC(=O)CC(=O)Nc1sc(CC)cc1C(=O)c1ccccc1Cl
144 to 145	O=C(NCCCCCCCNC(=O)c1ccc(OC2CCCCC2)cc1)c1ccc(OC2CCCCC2)cc1
81 to 83	N#CCOc1ccc(-c2ccccc2)cc1
84.5 to 86	COc1ccc(-c2ccccc2)cc1F
159 to 161	COC1C(OC(=O)c2ccc(N)cc2)C=C(C)C(=O)CC1(C)C (configuration not stated)
166 to 167	CSc1ccc(-c2ccccc2)c(NC(N)=S)c1
201 to 204	CN(CCO)c1ccc(C=Cc2ccc(S(C)(=O)=O)cc2)cc1
206	COc1cc(C(=O)Oc2ccc3c(OC(=O)c4ccc(O)c(OC)c4)c4cc(OC(=O)c5ccc(O)c(OC)c5)ccc4cc3c2)ccc1O
65 to 66	CCc1nc(Cl)c(C=O)n1Cc1ccc2oc(-c3ccccc3NC(=O)OC(C)(C)C)c(Br)c2c1
92 to 93	CC(C)(Oc1ccc([Si](C)(C)C)cc1)C(=O)O
125 to 126	COc1cc(C=CC=O)ccc1OCc1nc(-c2ccco2)oc1C
226 to 228	CN1CCN(Cc2ccccc2-c2cc3c(Nc4ccc5[nH]ccc5c4)c(C#N)cnc3s2)CC1
192 to 194	COC(=O)c1cc(=O)c2ccc(OCC(O)COc3cccc(O)c3C(C)=O)cc2[nH]1 (configuration not stated)
97 to 98	Cc1c(C(=O)c2cccc(C(F)(F)F)c2)oc2c(Br)cccc12
209 to 211	COc1ccc(/C=C/C(=O)c2ccc(C(=O)O)cc2)c(-c2cccs2)c1
> 260	COC(=O)CCc1ccc(N2CCN(c3ccc(C(=N)NC(=O)OC)cc3)C2=O)cc1
